In patent US20150101077A1, “INDUCIBLE PROMOTER SEQUENCES FOR REGULATED EXPRESSION AND METHODS OF USE” (PIONEER HI-BRED INTERNATIONAL INC, priority 2012, published 2015):

Columns and labels:
1.0 kb ZmCAS1 promoter [1] = experiment: Northern analysis of MS45 mRNA in ms45/ms45 maize callus transformed with PHP16972; format: cell-based; settings: 100 mg/liter CBSU, room temperature, 18 hours, FIG. 6
Text: T-DNA vectors PHP16972 (SEQ ID NO:13, ZmCAS1HindIII Pro: MS45/35S:PAT) and PHP16973 (SEQ ID NO: 14, ZmCAS1 BamPro:MS45/35S:PAT) were used to transform maize callus which was generated to contain a segregating population of MS45/ms45 heterozygous and ms45/ms45 homozygous mutant plants. In order to detect MS45 RNA or protein expression under the control of the 1.0 or 1.7 kb ZmCAS promoter in maize anthers, plants containing a naturally occurring mutation in the maize MS45 gene which results in loss of MS45 RNA and protein were used for these studies. Pollen from MS45/ms45 plants were used to fertilize male-sterile ms45/ms45 plants for the purpose of generating embryos which would be ms45/ms45 as described in Cigan et al 2001. […] Five random bialophos-resistant callus events containing integrated copies of PHP16972 were placed onto maintenance media (FIG. 5, (−)) and maintenance media containing 100 mg/liter safener CBSU-2 (FIG. 5 (+)) at room temperature for 18 hours, removed and PolyA+RNA prepared and used for RNA analysis as described (Cigan et al. 2001. Sex. Plant Reprod. 14, 135-142) using the ZmMS45 and ZmActin probes for hybridization analysis. […] A very low signal was observed when callus was grown in the absence of CBSU. Actin was used as a control probe to show nearly equivalent RNA levels were present in all samples. […]

IN2-2 transcript = experiment: Northern blot of maize anther RNA with IN2-2 probe after CBSU treatment; format: in vivo; settings: CBSU-treated male-fertile and male-sterile plants, FIG. 2
Experimental: Wild type maize plants were grown to the meiosis stage of microspore development. Plants were watered with 30 mg 2-CBSU and allowed to develop to the quartet and early vacuolate stage of microspore development. PolyA+ anther RNA was isolated from wild type control and CBSU treated plants and stored. A cDNA library was constructed from mRNAs isolated from CBSU-treated plants, arrayed onto nylon filters and stored. A cDNA subtraction library was generated using the Clontech PCR-Select cDNA Subtraction Kit (#K1804-1) following the manufacturer's instructions to enrich for CBSU-specific transcripts. Using this approach anther PolyA+mRNA from wild-type plants was used to enrich for transcripts found in the anther PolyA+mRNA from CBSU treated plants. […]
(§1) To determine whether the ZmCAS1 cDNA was 1) induced in maize anthers by CBSU-treatment and 2) reduced or absent in tapetum and microspore-ablated maize anthers from CBSU-treated 5126:DAM plants, a 477 bp ZmCAS1c-1 DNA fragment (SEQ ID NO:1), as well as DNA fragments from ZmMS45, Zm5126, ZmActin, and ZmUbiquitin (Cigan et al. 2001. […] MS45 and 5126 transcripts were easily detected in anther RNAs from male-fertile plants but absent in anther RNAs from male-sterile plants (FIG. 2) further supporting the observation that these RNAs are localized to the maize tapetum (Cigan et al. 2001. Sex. Plant Reprod. 14, 135-142).

1.0 kb ZmCAS1 promoter [2] = experiment: X-Gluc GUS staining of rice callus transformed with PHP16974; format: cell-based, Oryza sativa cv.Kitaake; settings: PHP16974 callus events, 100 mg/liter CBSU, 24 hours, FIG. 9
Text: To determine whether the ZmCAS1 promoter could conditionally regulate expression in response to safener treatment or heat treatment in plant species other than maize, Agrobacterium-mediated transformation was used to generate integrated copies of PHP16974 (ZmCAS1HindIII Pro:GUS) comprising the truncated 1.0 kb ZmCAS1 promoter for studies in rice. Scutellum from 10-14 day old germinating seeds (Oryza sativa cv.Kitaake) was used for rice transformation experiment (Toki. 1997, PI Mol. Biol Reporter 15:16-21). Bialophos-resistant callus events containing PHP16974 were selected and screened for their ability to respond to safener application. Four independent bialophos-resistant events were grown on maintenance media or maintenance media containing 100 mg/liter CBSU for 24 hours, removed and stained with X-Gluc. […] PHP16974 bialophos-resistant events were regenerated into plants. Leaf tissue was collected from these plants and used for DNA hybridization analyses to identify single-copy PHP16974 insertions. These plants were allowed to set selfed seed and were used for subsequent studies to monitor GUS expression under the transcriptional control of the ZmCAS1 promoter. Sixteen seed were selected from 2 single-copy PHP16974 events were sterilized, grown on hormone-free media at 28° C. or 37° C. for 48 hours and allowed to germinate. […]

1.7 kb ZmCAS1 promoter [3] = experiment: Western analysis of MS45 protein in ms45/ms45 maize plants transformed with PHP16973; format: in vivo; settings: PHP16973 plants watered with 30 mg of CBSU, collected 2 days later
1.7 kb ZmCAS1 promoter [4] = experiment: X-Gluc GUS staining of maize callus transformed with PHP16975; format: cell-based; settings: room temperature, 18 hours, FIG. 4A
Text: Agrobacterium-mediated transformation of immature embryos was used to generate integrated copies of PHP16974 (SEQ ID NO:11; ZmCAS1HindIII Pro:GUS/35SPAT) comprising the 1.0 kb ZmCAS1 promoter (SEQ ID NO:9), PHP16975 (SEQ ID NO:12, ZmCAS1BamPro:GUS/35SPAT) comprising the 1.7 kb ZmCAS1 promoter (SEQ ID NO:10) and PHP16972 (SEQ ID NO:13, ZmCAS1 HindIII Pro:MS45/35SPAT) comprising the 1.0 kb ZmCAS1 promoter or PHP16973 (SEQ ID NO:14, ZmCASIBamPro:MS45/35SPAT:) comprising the 1.7 kb ZmCAS1 promoter.
To determine whether the 1.7 kb or the 1.0 kb ZmCAS1 promoter from maize could direct induced expression of the GUS reporter, three bialophos-resistant callus events were placed onto maintenance media and maintenance media containing increasing amounts of the safener CBSU-2 for at room temperature for 18 hours, removed and stained with X-Gluc to detect GUS activity.

ZmCAS1 transcript = experiment: Northern blot of maize RNA with ZmCAS1 probe after CBSU treatment; format: in vivo; settings: for ZmCAS1 hybridization signal in anther mRNA: FIG. 2
Experimental: Wild type maize plants were grown to the meiosis stage of microspore development. Plants were watered with 30 mg 2-CBSU and allowed to develop to the quartet and early vacuolate stage of microspore development. PolyA+ anther RNA was isolated from wild type control and CBSU treated plants and stored. A cDNA library was constructed from mRNAs isolated from CBSU-treated plants, arrayed onto nylon filters and stored. A cDNA subtraction library was generated using the Clontech PCR-Select cDNA Subtraction Kit (#K1804-1) following the manufacturer's instructions to enrich for CBSU-specific transcripts. Using this approach anther PolyA+mRNA from wild-type plants was used to enrich for transcripts found in the anther PolyA+mRNA from CBSU treated plants. This cDNA subtraction library was subcloned into pSPORT (BRL) vector, colonies plated, picked and sequenced. Among the vector inserts sequenced, two DNA sequences were present at a high proportion, at more than 10% of the inserts sequenced, and referred to as ZmCAS1c-1 (477 bp; SEQ ID NO: 1) and ZmCAS1c-2 (438 bp; SEQ ID NO: 2) (QBSU-Anther-Subtract 1). Both ZmCAS1c-1 and ZmCAS1c-2 had sequence identity to mannitol dehydrogenases from plants. ZmCASlc-1 and ZmCAS1c-2 DNA fragments were used as hybridization probes to screen the filter arrayed cDNA CBSU-anther library described above to isolate full-length cDNA containing hybridizing clones. Both ZmCAS1c-1 and ZmCAS1c-2 identified identical cDNA clones. […]
as §1

1.7 kb ZmCAS1 promoter [5] = experiment: GUS expression in leaf punches of maize plants transformed with PHP16975; format: in vivo; settings: 2 days after watering with 30 mg of 2-CBSU, 3 PHP16975 plants, FIG. 5
Experimental: Plants were also regenerated from callus events containing PHP16975 and grown in the greenhouse to approximately the 5 leaf stage. At this stage of development, leaf punches from plants regenerated from the 3 bialophos-resistant events shown in FIG. 5 were collected pre- (C) and post-watering (S) with 30 mg of 2-CBSU to examine GUS expression in leaf in response to application of the safener.

1.0 kb ZmCAS1 promoter [6] = experiment: X-Gluc GUS staining of maize callus transformed with PHP16974; format: cell-based; settings: seven PHP16974 callus events, 100 mg/liter CBSU, room temperature, FIG. 4B

**Q.** What does the source list for `NC(=O)NS(=O)(=O)c1ccccc1Cl` [CBSU, N-(aminocarbonyl)-2-chlorobenzenesulfonamide]?
**A.** MS45 mRNA hybridization signal in callus (1.0 kb ZmCAS1 promoter [1]): strong induction of a hybridization signal; IN2-2 hybridization signal in anther mRNA (IN2-2 transcript): strong hybridization signals; GUS expression in rice callus (1.0 kb ZmCAS1 promoter [2]): strong GUS expression; MS45 protein in leaf extracts (1.7 kb ZmCAS1 promoter [3]; FIG. 7): increased steady-state levels of the MS45 protein; MS45 protein in anther extracts (1.7 kb ZmCAS1 promoter [3]; FIG. 8): Increased MS45 protein; GUS expression in callus (1.7 kb ZmCAS1 promoter [4]; 10 mg/l CBSU): low levels of GUS expression; GUS expression in callus (1.7 kb ZmCAS1 promoter [4]; 100 mg/l CBSU): strong GUS expression; ZmCAS1 hybridization in mRNAs from callus, leaf and anther (ZmCAS1 transcript; maize callus or leaf treated with CBSU, FIG. 3): strong hybridization; ZmCAS1 hybridization signal in anther mRNA (ZmCAS1 transcript; male-fertile CBSU-treated plants (+, F)): strong hybridization signals; ZmCAS1 hybridization signal in anther mRNA (ZmCAS1 transcript; male-sterile 5126:DAM CBSU-treated plants (+, S)): reduced ZmCAS1 signal; GUS expression in leaf punches (1.7 kb ZmCAS1 promoter [5]): strong GUS expression; GUS expression in callus (1.0 kb ZmCAS1 promoter [6]): inducible GUS expression
